Entries after “also recorded” stand apart in the source; their conditions may differ.
Columns and labels:
[1] = biological target: T1, folate receptors (FRs) on KB cells (Homo sapiens, UniProt P15328); experiment: Relative affinity assay (displacement of 3H-folic acid); format: binding; details: relative to folic acid, set to 1, 100 nM 3H-folic acid
T1 construct: FR-positive KB cells were heavily seeded into 24-well cell culture plates; endogenous in cells; host or cells: KB cells
Procedure: The affinity for folate receptors (FRs) relative to folate was determined according to a previously described method (Westerhof, G. R., J. H. Schomagel, et al. (1995) Mol. Pharm. 48: 459-471) with slight modification. Briefly, FR-positive KB cells were heavily seeded into 24-well cell culture plates and allowed to adhere to the plastic for 18 h. Spent incubation media was replaced in designated wells with folate-free RPMI (FFRPMI) supplemented with 100 nM ^3H-folic acid in the absence and presence of increasing concentrations of test article or folic acid. Cells were incubated for 60 min at 37° C. and then rinsed 3 times with PBS, pH 7.4. Five hundred microliters of 1% SDS in PBS, pH 7.4, were added per well. Cell lysates were then collected and added to individual vials containing 5 mL of scintillation cocktail, and then counted for radioactivity. Negative control tubes contained only the ^3H-folic acid in FFRPMI (no competitor). Positive control tubes contained a final concentration of 1 mM folic acid, and CPMs measured in these samples (representing non-specific binding of label) were subtracted from all samples.

[2] = system: folate receptor-positive KB cells; format: cell-based, human
Procedure: The compounds described herein were evaluated using an in vitro cytotoxicity assay that predicts the ability of the drug to inhibit the growth of folate receptor-positive KB cells. The compounds were comprised of folate linked to a respective chemotherapeutic drug, as prepared according to the protocols described herein. The KB cells were exposed for up to 7 h at 37° C. to the indicated concentrations of folate-drug conjugate in the absence or presence of at least a 100-fold excess of folic acid. The cells were then rinsed once with fresh culture medium and incubated in fresh culture medium for 72 hours at 37° C. Cell viability was assessed using a ^3H-thymidine incorporation assay.
As shown in the figures herein, dose-dependent cytotoxicity was measurable, and in most cases, the IC50 values (concentration of drug conjugate required to reduce ^3H-thymidine incorporation into newly synthesized DNA by 50%) were in the low nanomolar range.

FR-positive M109 tumors = experiment: Inhibition of tumor growth in mice, M109; format: in vivo, Balb/c mice
Procedure: The anti-tumor activity of the compounds described herein, when administered intravenously (i.v.) to tumor-bearing animals, was evaluated in Balb/c mice bearing subcutaneous M109 tumors. […] Tumor growth was measured using calipers at 2-day or 3-day intervals in each treatment group. Tumor volumes were calculated using the equation V=a×b^2/2, where “a” is the length of the tumor and “b” is the width expressed in millimeters.

[3] = Weight determination, Balb/c mice (M109 study); format: in vivo; details: 1 μmol/kg and 2 μmol/kg TIW (6 doses)
Procedure: (§1) The percentage weight change of the mice was determined in mice (5 mice/group) on the indicated days post-tumor inoculation (PTI) as shown in the graph for the samples described in the related tumor volume assay.

[4] = system: FR-positive s.c. human xenograft KB tumors; experiment: Inhibition of tumor growth in mice, KB; format: in vivo, nu/nu mice
Procedure: The anti-tumor activity of the compounds described herein, when administered intravenously (i.v.) to tumor-bearing animals, was evaluated in nu/nu mice bearing subcutaneous KB tumors. […] Tumor growth was measured using calipers at 2-day or 3-day intervals in each treatment group. Tumor volumes were calculated using the equation V=a×b^2/2, where “a” is the length of the tumor and “b” is the width expressed in millimeters.

[5] = Weight determination, nude mice; format: in vivo, nu/nu mice
Procedure: as §1

[6] = system: folate receptor negative 4T1 tumors; experiment: 4T-1 tumor volume assay; format: in vivo, Balb/c mice; details: 2 μmol/kg TIW for two weeks
Procedure: Six to seven week-old mice (female Balb/c strain) were obtained from Harlan, Inc., Indianapolis, Ind. The mice were maintained on Harlan's folate-free chow for a total of three weeks prior to the onset of and during this experiment. Folate receptor-negative 4T-1 tumor cells (1×10^6 cells per animal) were inoculated in the subcutis of the right axilla. […] Tumor growth was measured using calipers at 2-day or 3-day intervals in each treatment group. Tumor volumes were calculated using the equation V=a×b^2/2, where “a” is the length of the tumor and “b” is the width expressed in millimeters.

[7] = system: folate receptor positive human tumors; format: in vivo, nude mice; details: 2 μmol/kg TIW, five animals
[8] = system: KB, 4T-1c12, and ID8-c115 tumor cell lines; experiment: In vitro cytotoxic activity on three tumor cell lines; details: 4T-1c12, ID8-c115, plus excess folic acid
[9] = 1 μmol/kg TIW for 2 weeks plus 40 μmol/kg EC20 (rhenium complex)
[10] = 1 μmol/kg TIW for 2 weeks, without EC20

T1 sequence (P15328 25-234): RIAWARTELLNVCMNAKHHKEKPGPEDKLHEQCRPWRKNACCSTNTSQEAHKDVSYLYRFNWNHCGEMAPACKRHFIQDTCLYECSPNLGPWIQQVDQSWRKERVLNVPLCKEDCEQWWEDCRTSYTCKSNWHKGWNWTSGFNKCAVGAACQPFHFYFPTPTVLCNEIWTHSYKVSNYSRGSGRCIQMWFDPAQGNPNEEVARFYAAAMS

Row | Structure (SMILES) | relative binding affinity at folic acid receptors [1] | potency of Example 11 relative to Example 9 ([2]; 3H-thymidine incorporation IC50 compared) | IC50 ([2]; KB cells, without excess folic acid, read-out: IC50, 3H-thymidine incorporation) | effect of excess folic acid on activity in 3H-thymidine incorporation ([2]; with excess folic acid) | growth of M109 tumors (FR-positive M109 tumors; 1 μmol/kg and 2 μmol/kg TIW (6 doses)) | growth of M109 tumors, higher dose (FR-positive M109 tumors; 2 μmol/kg TIW (6 doses), also after dosing ended on day 20) | complete responses, M109 tumors (FR-positive M109 tumors; 2 μmol/kg TIW (6 doses), five animals) | weight of Balb/c mice [3] | complete responses, KB tumors ([4]; 1 μmol/kg TIW for 2 weeks (6 doses), alone) | complete responses, KB tumors, with EC20 [4, 9] | growth of KB tumors, with EC20 [4, 9] | growth of KB tumors [4, 10] | activity on established s.c. KB tumors versus controls ([4]; 1 μmol/kg TIW for two weeks, FIG. 13) | activity on large s.c. KB tumors ([4]; 2 μmol/kg TIW, 2 weeks, start at 250, 500 or 750 mm^3) | weight of nu/nu (nude) mice, with EC20 [5, 9] | weight of nu/nu (nude) mice [5, 10] | weight of nude mice ([5]; 2 μmol/kg TIW, FIG. 11) | activity on 4T1 tumors [6] | complete responses, FR-positive human tumors [7] | in vitro cytotoxic activity with excess folic acid [8]
1 | CC[C@]1(O)C[C@@H]2CN(CCc3c([nH]c4ccccc34)[C@@](C(=O)OC)(c3cc4c(cc3OC)N(C)[C@H]3[C@@](O)(C(=O)NNC(=O)OCCSSC[C@H](NC(=O)[C@H](CN)NC(=O)[C@H](CC(=O)O)NC(=O)[C@H](CC(=O)O)NC(=O)[C@H](CC(=O)O)NC(=O)CC[C@H](NC(=O)c5ccc(NCc6cnc7nc(N)[nH]c(=O)c7n6)cc5)C(=O)O)C(=O)O)[C@H](O)[C@]5(CC)C=CCN6CC[C@]43[C@@H]65)C2)C1 [Example 9] | 0.24 | – | – | – | – | – | – | – | – | – | – | – | – | – | – | – | – | – | – | –
2 | CC[C@]1(O)CC2CN(CCc3c([nH]c4ccccc34)[C@@](C(=O)OC)(c3cc4c(cc3OC)N(C)[C@H]3[C@@](O)(C(=O)NNC(=O)OCCSSC[C@H](NC(=O)[C@H](CNC(=O)CCSSCCNC5=C(C)C(=O)C6=C(C5=O)[C@@H](COC(N)=O)[C@@]5(OC)[C@H]7N[C@H]7CN65)NC(=O)[C@H](CC(=O)O)NC(=O)[C@H](CC(=O)O)NC(=O)[C@H](CC(=O)O)NC(=O)CC[C@H](NC(=O)c5ccc(NCc6cnc7nc(N)[nH]c(=O)c7n6)cc5)C(=O)O)C(=O)O)[C@H](O)[C@]5(CC)C=CCN6CC[C@]43[C@@H]65)C2)C1 (stereo partly shown) [Example 11] | 0.21 | more than 10 fold | 5 nM | folic acid competes with the conjugates for binding to the folate receptor | inhibited the growth of solid tumors | strong inhibition of tumor growth | all five animals showed a complete response | little effect on the weight of the mice; also recorded: absence of an effect | 5/5 | 0/5 | inhibitory effect is prevented (competed against) by the EC20 rhenium complex | inhibits the growth of solid tumors | superior to controls | inhibits the growth of large tumors and gives a complete response in test animals | absence of an effect | did not affect the weight of the test animal significantly from controls; also recorded: absence of an effect | did not significantly affect the weight of the test animals; also recorded: absence of an effect | does not have any effect on the tumors compared to controls | complete response in five out of five test animals | reduced in the presence of excess folic acid
3 | Nc1nc2ncc(CNc3ccc(C(=O)N[C@@H](CCC(=O)O)C(=O)O)cc3)nc2c(=O)[nH]1 [folic acid, reference compound] | 1.0 | – | – | – | – | – | – | – | – | – | – | – | – | – | – | – | – | – | – | –

From patent publication US8465724B2, “Multi-drug ligand conjugates” (Endocyte, Inc., priority 2005, dated 2013)
